Measured values taken from the supplement of paper PMC10307832.

Experiments:
Assay in all cases: relative viability (nuclei count vs DMSO), 5 days (fraction); higher = more cells survive
[1] = compound: C[As](C)SC[C@H](NC(=O)CC[C@H](N)C(=O)O)C(=O)NCC(=O)O [Darinaparsin] + CC(C)C[C@H](NC(=O)[C@H](Cc1ccccc1)NC(=O)c1cnccn1)B(O)O [Bortezomib] (partner 0.002 µM)
In short: (§1)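 Values are medians from duplicate plates. Each reflects relative viability, defined as the nuclei count of treated wells over that of vehicle wells. Lung cancer cell lines in 1536-well plates were pin-tool dosed one day after seeding with one drug alone or with a fixed anchor-drug dose plus five library-drug doses (not always all listed) in √10 steps, then fixed, stained and imaged at 4× after 5 days.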

[2] = compound: C1CC2=C(C1)C=C(C=C2)OC3=NC(=C4C(=N3)N(C=N4)CC5=CC=C(C=C5)C6=CC=CC=C6)N[C@@H](CC7=CC=CC=C7)CO [QS11] + N=C(N)NC(=N)NCCc1ccccc1 [Phenformin] (partner 250 µM)
In short: as §1

[3] = compound: CC1=C(C=C(C=C1)NC(=O)C2=CC(=CC=C2)C(C)(C)C#N)NC3=CC4=C(C=C3)N=CN(C4=O)C [AZ628] + Cc1nc(Nc2ncc(C(=O)Nc3c(C)cccc3Cl)s2)cc(N2CCN(CCO)CC2)n1 [Dasatinib] (partner 0.075 µM)
In short: as §1

[4] = compound: C1CC2=C(C1)C=C(C=C2)OC3=NC(=C4C(=N3)N(C=N4)CC5=CC=C(C=C5)C6=CC=CC=C6)N[C@@H](CC7=CC=CC=C7)CO [QS11] + C[C@@H](Oc1cc(-c2cnn(C3CCNCC3)c2)cnc1N)c1c(Cl)ccc(F)c1Cl [Crizotinib] (partner 1 µM)
In short: as §1

| Cell Line | relative viability ([1]; first compound 0.08 µM) | relative viability ([1]; first compound 0.8 µM) | relative viability ([1]; first compound 2.53 µM) | relative viability ([1]; first compound 8 µM) | relative viability ([2]; first compound 0.08 µM) | relative viability ([2]; first compound 0.253 µM) | relative viability ([2]; first compound 0.8 µM) | relative viability ([2]; first compound 2.53 µM) | relative viability ([2]; first compound 8 µM) | relative viability ([3]; first compound 0.08 µM) | relative viability ([3]; first compound 0.253 µM) | relative viability ([3]; first compound 0.8 µM) | relative viability ([3]; first compound 2.53 µM) | relative viability ([3]; first compound 8 µM) | relative viability ([4]; first compound 0.08 µM) | relative viability ([4]; first compound 0.253 µM) | relative viability ([4]; first compound 0.8 µM) | relative viability ([4]; first compound 2.53 µM) | relative viability ([4]; first compound 8 µM) |
| --- | --- | --- | --- | --- | --- | --- | --- | --- | --- | --- | --- | --- | --- | --- | --- | --- | --- | --- | --- |
| 201T | 1.1 | 1.09 | 1.06 | 1.15 | 0.468 | 0.399 | 0.4 | 0.414 | 0.376 | 0.592 | 0.533 | 0.53 | 0.513 | 0.471 | 1.04 | 1.07 | 0.778 | 1.03 | 0.947 |
| A549 | – | – | – | – | 0.115 | 0.256 | 0.154 | 0.125 | 0.197 | – | – | – | – | – | 0.791 | 0.773 | 0.613 | 0.483 | 0.522 |
| A-427 | 1.05 | 0.977 | 0.954 | 1.08 | 0.286 | 0.358 | – | 0.34 | 0.363 | 0.594 | 0.472 | 0.301 | 0.314 | 0.153 | 0.779 | 0.885 | – | 0.829 | 0.821 |
| ABC-1 | 0.256 | 0.443 | 0.331 | 0.234 | 0.238 | 0.259 | 0.281 | 0.292 | 0.268 | 0.592 | 0.412 | 0.583 | 0.516 | 0.52 | 0.942 | 1.18 | 0.959 | 0.913 | 0.912 |
| BEN | 0.889 | 0.846 | 0.654 | 1 | 0.262 | 0.3 | 0.29 | 0.258 | 0.251 | 0.348 | 0.304 | 0.301 | 0.508 | 0.309 | 0.801 | 1.06 | 0.978 | 0.736 | 1.09 |
| CAL-12T | 1.01 | 0.924 | 0.94 | 0.997 | 0.571 | 0.572 | 0.552 | 0.594 | 0.561 | 0.385 | 0.336 | 0.255 | 0.271 | 0.278 | 0.579 | 0.733 | 0.626 | 0.394 | 0.512 |
| COR-L23 | 1.64 | 0.995 | 0.77 | 1.17 | 0.461 | 0.452 | 0.44 | 0.39 | 0.366 | 0.499 | 0.465 | 0.493 | 0.447 | 0.347 | 0.672 | 0.642 | 0.481 | 0.447 | 0.481 |
| COR-L 105 | 0.944 | 0.78 | – | 0.636 | 0.511 | 0.407 | 0.475 | 0.501 | 0.475 | 0.358 | 0.419 | 0.285 | 0.312 | 0.244 | 1.04 | 0.735 | 0.616 | 0.618 | 0.702 |
| Calu-6 | 1.04 | 0.968 | 0.949 | 0.945 | – | – | – | – | – | – | – | – | – | – | 0.907 | 0.914 | 0.728 | 0.952 | 0.828 |
| ChaGo-K-1 | 1.18 | 1.07 | 1.01 | 0.767 | 0.366 | 0.561 | 0.542 | 0.588 | 0.421 | 0.585 | 0.501 | 0.287 | 0.547 | 0.564 | – | 1.24 | 1.26 | 0.957 | 1.23 |
| EBC-1 | 0.473 | 0.559 | 0.471 | 0.507 | – | – | – | – | – | – | – | – | – | – | 0.19 | 0.203 | 0.206 | 0.224 | 0.238 |
| EKVX | 1.14 | 0.96 | 0.946 | 1.41 | 0.228 | 0.224 | – | 0.228 | 0.255 | 0.537 | 0.541 | 0.422 | 0.346 | 0.334 | 1.13 | 1.03 | – | 0.749 | 1.2 |
| EMC-BAC-2 | 1.2 | 0.973 | 0.997 | 1.2 | 0.519 | 0.579 | 0.53 | 0.463 | 0.44 | 0.303 | 0.321 | 0.383 | 0.373 | 0.412 | 0.892 | 0.75 | 0.529 | 0.741 | 0.541 |
| EPLC-272H | 1.07 | 0.969 | 0.74 | 0.9 | – | 0.327 | 0.312 | 0.287 | 0.304 | 0.317 | 0.345 | 0.398 | 0.357 | 0.231 | 0.861 | 0.962 | 1.03 | 0.835 | 1.13 |
| H3255 | 0.794 | 0.835 | 0.79 | 0.945 | 0.341 | 0.351 | – | 0.418 | 0.363 | 0.311 | 0.362 | 0.319 | 0.351 | 0.252 | 0.869 | 0.973 | – | 1.02 | 0.847 |
| HARA | 1.49 | 1.12 | 1.06 | 1.25 | 0.368 | 0.448 | – | 0.479 | 0.63 | 0.322 | 0.227 | 0.175 | 0.247 | 0.198 | 1.11 | 1.1 | – | 1.1 | 1.04 |
